# Test results as given in patent publication US6638963B1, “Methods for treating circadian rhythm disorders” (Oregon Health and Science University, priority 1990, dated 2003).
# Columns and labels:
# Format in all cases: in vivo, human
# [1] = test system: dim light melatonin onset (DLMO); experiment: Melatonin phase response curve trials, two doses of 0.25 mg two hours apart (Example 2); conditions: four days, nine subjects, 30 trials, time referenced to first capsule
# Experimental: (§1) Prior to collection of human blood, subjects were kept in dim light for about 5 hours (usually between 6 p.m. and 11 p.m.). An intravenous line or heparin lock was inserted in a forearm vein and 5 mL of blood drawn every 30 minutes between 7 p.m. and 11 p.m. The blood samples were centrifuged for 5 minutes at 1000 g and 4° C., and the plasma aspirated into a silanized glass or plastic tube. Samples were assayed immediately or frozen for later analysis. Saliva samples can alternatively be collected and analyzed
# To a 1 mL aliquot of such plasma was added 50 picograms of N-acetyl-5-methoxy(α,α,β,β-D4)tryptamine as a chromatographic control. […]
# (§2) The amount of melatonin present in each sample was determined by gas chromatographic-mass spectrometric analysis. […]
# Mass spectrographic analysis of the column eluant was then performed. Mass spectra were recorded using a Hewlett Packard 5989A mass spectrometer with an ETP Scientific electron multiplier using HP Chemstation software. The relative signals of melatonin and the added N-acetyl-5-methoxy(α,α,β,β-D4)tryptamine control were detected at m/e (mass/charge) ratios of 320 and 323, respectively. […]
# Melatonin was administered to nine subjects as two doses of 0.25 mg, two hours apart, thereby simulating a sustained-release (SR) formulation. […] Phase shifts were calculated by subtracting the post-treatment DLMO from the pre-treatment DLMO. […]
# [2] = test system: patients with winter depression; experiment: Treatment of patients with winter depression, SIGH-SAD depression ratings, melatonin versus placebo (Example 11); conditions: for SIGH-SAD change score from pre-treatment: 0.125 mg per capsule at about CT 8 and about CT 12, N=5, p<0.05 vs placebo
# Experimental: Patients with winter depression were treated with either melatonin (N=5) or placebo (N=5). All subjects were screened prior to being admitted into the study and met the following criteria: 1) the DSM-IV criteria (American Psychiatric Association, 1994) for moderate to severe major depressive disorder (without psychotic episodes) or bipolar disorder (depressed or not otherwise specified) with a winter type seasonal pattern; 2) scored […] on the Structured Interview Guide for the Hamilton Depression Rating Scale Seasonal Affective Disorder Version (SIGH-SAD) (Williams et al., 1994, Structured Interview Guide for the Hamilton Depression Scale-Seasonal Effective Disorder Version (SIGH-SAD), New York: New York State Psychiatric Institute) with Hamilton Depression Scale (HAM-D) (Hamilton, 1967, Brit. J. Soc. Clin. Psychol. 6: 278-296)≦10 and an atypical score ≦5 ([…] et al., 1990, Neuropsychopharmacol. […] Prior to inclusion in the study, subjects were interviewed by a physician and also completed 7 a health and sleep screening questionnaire. Written informed consent was obtained for all participants. The study was a three-week, parallel-group design, consisting of a pre-treatment assessment followed by three treatment weeks. Subjects were randomly assigned to either a melatonin or placebo group and were counter balanced based on their initial depression scores (SIGH-SAD) and their reported awakening times. Each group received melatonin or placebo in two daily capsules at about CT 8 and about CT 12, estimated from each subject's initial reported awakening time (about CT 0). The dose of melatonin was 0.125 mg per capsule. For behavioral ratings, subjects were initially interviewed face-to-face using the 29-item Structured Interview Guide for the Hamilton Depression Rating Scale-Seasonal Affective Disorder version (SIGH-SAD). Two subsequent interviews were done weekly by telephone and the third and final interview was conducted in person. All interviews were conducted by a researcher blind to treatment conditions. For the three-week period, subjects completed a Likert daily rating form and a daily sleep diary. To specifically assess fatigue associated with the capsule, subjects also completed a Profile of Mood States (POMS) 30 minutes after ingestion of each capsule. In addition, pre-study and weekly expectations questionnaires were completed. Ten patients (9 females) with winter depression were admitted into the study. The mean age of the melatonin group was 37 (SD=13.6; range: 22-58) and the placebo group was 32.2 (SD=8.6; range: 22-42). The mean pre-treatment SIGH-SAD score for the placebo group was 29.4; the melatonin group mean was 29.2. The initial reported mean wake up time for the placebo group was 7:12 AM; the melatonin group mean was 7:20 AM. […]
# [3] = test system: dim light melatonin onset (DLMO); experiment: Melatonin phase response curve trials, single 0.5 mg immediate-release dose (Example 3)
# Experimental: as §1
# To a 1 mL aliquot of such plasma was added 50 picograms of N-acetyl-5-methoxy(α,α,β,β-D4)tryptamine as a chromatographic control. An equal volume of normal saline was added and the mixture gently shaken with 8 volumes of petroleum ether. The organic phase was removed, and melatonin and the added N-acetyl-5-methoxy(α,α,β,β-D4)tryptamine control extracted from the aqueous phase with 8 volumes of chloroform. The aqueous phase was then discarded, and the chloroform evaporated to dryness.
# The dried extract containing melatonin and the added N-acetyl-5-methoxy(α,α,β,β-D4)tryptamine control was dissolved in 50 μL ethyl acetate. The melatonin contained in the plasma samples and the added N-acetyl-5-methoxy(α,α,β,β-D4)tryptamine control were then derivatized by the addition of 50 μL of pentafluoroproprionic acid anhydride and reacted at 70° C. for 10 minutes. These reaction products were then evaporated to dryness under nitrogen. The dried extract was partitioned between 0.5 mL acetonitrile and 1 mL hexane by vigorous mixing followed by centrifugation and removal of the hexane layer. This partitioning step was repeated twice more, except that the hexane was not removed after the final partitioning. […]
# as §2
# Mass spectrographic analysis of the column eluant was then performed. Mass spectra were recorded using a Hewlett Packard 5989A mass spectrometer with an ETP Scientific electron multiplier using HP Chemstation software. The relative signals of melatonin and the added N-acetyl-5-methoxy(α,α,β,β-D4)tryptamine control were detected at m/e (mass/charge) ratios of 320 and 323, respectively. The amount of melatonin present in any unknown sample can be determined by comparison of the ratio of the intensities of these signals to a standard curve, prepared as described using known amounts of melatonin and added N-acetyl-5-methoxy(α,α,β,β-D4)tryptamine control.
# Melatonin was administered to five subjects as a single 0.5 mg (or immediate-release (IR)) dose. […] Dim light melatonin onset (DLMO) times were determined at the end of each week. Phase shifts were calculated from a comparison of the post-treatment DLMO to the pre-treatment DLMO. […]
# [4] = test system: endogenous circadian pacemaker; experiment: Dose effect of melatonin on shift of the endogenous circadian pacemaker; conditions: melatonin dosages from about 0.125 mg to about 0.5 mg
# Source text: The present invention contemplates the administration of various doses of melatonin which promote quantitative shifts in an individual's endogenous circadian pacemaker. The administration of sufficient doses of melatonin is capable of shifting the endogenous circadian pacemaker, as well as the melatonin PRC, by an appropriate degree. […] The amount of melatonin administered to a human subject should be sufficient to achieve the desired circadian rhythm phase-shifting effect. In a preferred embodiment of this invention, a dosage of about 0.01 mg to about 100 mg, more preferably about 0.1 mg to about 10 mg, most preferably about 0.1 mg to about 1 mg, of exogenous melatonin is used to effect the desired change in phase of the circadian rhythm of endogenous melatonin production. For the purposes of this invention, the term “exogenously administered melatonin” encompasses various formulations of melatonin, melatonin agonists (that is, compounds that mimic melatonin's actions) and compounds that raise endogenous melatoriin levels. Therefore, whenever reference is made to increasing plasma melatonin levels due to administration of exogenous melatonin, this refers also to increasing plasma melatonin levels due to administration of a melatonin stimulant and increasing equivalent agonist levels due to administration of a melatonin agonist. […]
# [5] = both PRC studies (Examples 2 and 3)
compound,measurement,setting,value
"COc1ccc2[nH]cc(CCNC(C)=O)c2c1 [melatonin, N-acetyl-5-methoxytryptamine]",circadian time of administration at which maximal phase advances occur,[1],~7.5 CT
same,SIGH-SAD change score from pre-treatment,[2]; Week 1,15.4
same,SIGH-SAD change score from pre-treatment,[2]; Week 2,16.8
same,responders (39% or greater decrease in SIGH-SAD ratings to a score of 21 or less),"[2]; five subjects per group, one responder in placebo group, p=0.048, Fisher's Exact test",all five subjects responded
same,"SIGH-SAD scores after two weeks of capsules, melatonin versus placebo","[2]; one-tailed unpaired t-test, p=0.05",significant difference
same,crossover point between advance and delay responses of the melatonin PRC,[3]; [5],~18 CT
same,crossover point between delay and advance responses of the melatonin PRC,[3]; [5],~6 CT
same,circadian time for maximal phase advances,"[3]; single 0.5 mg IR dose, four days, five subjects, twelve trials each",~11 CT
same,circadian time at which phase delays begin,"[3]; single 0.5 mg IR dose, same time as found in Example 2",~6 CT
same,dose effect on shift of endogenous circadian pacemaker,[4],linear dose effect
